The test system of experiment [1] is A. baumannii 1649. Put plainly: minimal bactericidal concentration (MBC) assay, strain 1649. The conditions noted are these: Acinetobacter baumannii, Table 8, read-out: MBC90 1649. The experiment is classed as cell-based. In a few lines: (§1)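 MBC90 determined against A. baumannii clinical isolates to distinguish bactericidal from bacteriostatic activity, following the group's previously published MIC/MBC protocol.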

Experiment [2] concerns A. baumannii 1649. Description: MIC assay, strain 1649. In kind it is cell-based, Acinetobacter baumannii. The conditions noted are these: strain 1649. As for the experimental part: (§2) MIC and MBC assays were performed in this study as documented by us previously.^17,23,24,25 The A. baumannii strains used are detailed in Table 7.
The test system of another experiment is A. baumannii strain 1403. In kind it is cell-based, Acinetobacter baumannii. The conditions noted are these: serial passage, 8 days, start 0.5× MIC. As for the experimental part: An important attribute of novel antibiotics is the ability to fend off the development of resistance towards their effects. To assess this capacity, A. baumannii strains were incubated overnight with 0.5× MIC of each of the frontrunners. The next day cells were washed and used to inoculate fresh media that contained a two-fold increase in drug. This was repeated for a total of 8 days, alongside sulfamethoxazole (SMX) and trimethoprim (TMP) controls, both of which target the same pathway as our lead agents (FIG. 2).
In order to test potential resistance towards the quinazolines, a serial passage assay was performed alongside control compounds (Sulfamethoxazole and Trimethoprim), as described by us previously.^24 A. baumannii strain 1403 was grown overnight in LB media at 37° C. The next day cultures were diluted 1:100 in fresh media and seeded into a 96-well plate. Lead quinazolines or control agents were added to respective wells at half MIC concentrations. […] These were then grown overnight, and the procedure repeated for a total of eight days.

A further experiment has as its system A. baumannii 1646. Description: minimal bactericidal concentration (MBC) assay, strain 1646. In kind it is cell-based, Acinetobacter baumannii. In a few lines:
as §1

For a further experiment, the system named is A. baumannii 1650. Put plainly: MIC assay, strain 1650. In kind it is cell-based, Acinetobacter baumannii. The conditions noted are these: strain 1650. The method, then:
as §2

Converted amounts (≈) assume the structure as drawn. Where two headings read alike, the source gives them in different places.

In general, MIC refers to the lowest concentration found to suppress growth. Turning to `CNc1nc(NCc2ccccc2)nc2ccc(C)cc12` [Compound 5, N^2-Benzyl-N^4,6-dimethylquinazoline-2,4-diamine], the MBC with A. baumannii 1649 [1] is 9.3 µM (≈ 2.59 µg/mL); with A. baumannii 1646 (Acinetobacter baumannii, 1646, strain 1646, Table 8 and text, read-out: MBC90 1646), 0.77 µM (≈ 0.214 µg/mL); in the experiment on A. baumannii 1646 (Acinetobacter baumannii, Table 6, representative data for isolate 1646, read-out: MBC90), 0.8 µM (≈ 0.223 µg/mL). Also, the MIC is 25 µM (≈ 6.96 µg/mL) in the experiment with A. baumannii 1649 [2] (Acinetobacter baumannii, Table 2, read-out: 1649 MIC); 21 µM (≈ 5.85 µg/mL) in the experiment with A. baumannii 1649 [2] (Acinetobacter baumannii, lead quinazolines, Table 8, read-out: MIC 1649); 25 µM (≈ 6.96 µg/mL) with A. baumannii 1649 [2] (Tables 1, 3, 4, 5 and footnotes, read-out: 1649 MIC); 50 µM (≈ 13.9 µg/mL) in the experiment with A. baumannii 1650 (Acinetobacter baumannii, Table 2, read-out: 1650 MIC); 35 µM (≈ 9.74 µg/mL) with A. baumannii 1650 (Acinetobacter baumannii, lead quinazolines, Table 8, read-out: MIC 1650); 50 µM (≈ 13.9 µg/mL) in the experiment on A. baumannii 1650 (Tables 1, 3, 4, 5 and footnotes, read-out: 1650 MIC). In the experiment with A. baumannii strain 1403, the “increase in MIC over the 8-day test period” value was found to be 4 fold.

The values above are taken from patent US10323007B1, “N2N N4-disubstituted quinazoline-2,4-diamines and uses thereof” (University of South Florida, priority 2016, dated 2019).
